Measurements published in patent US20160158317A1, “Antimicrobial Peptide Variants and Polynucleotides Encoding Same” (Adenium Biotech A/S, priority 2010, published 2016).
Like-named read-outs stand apart in the source and are kept apart here. Where a SMILES comes first, the peptide text is derived from it. Bridges are numbered along the chain shown (N, C = ends).

Key:
[1] = Determination of the protein binding (90% serum, 30 kDa filter, HPLC); type: in vitro ADME
Description: Protein binding assays were performed as follows. The purified peptides were mixed with 90% serum and centrifuged through a 30 kDa filter. The ultra-filtrate and the non filtrated serum samples were quantified by HPLC measurements and the protein binding was subsequently calculated.

E. coli ATCC 10536 = assay: Plate assay screening of variants expressed in S. cerevisiae, overlaid with target organism in presence of horse blood or serum; type: cell-based, Escherichia coli; conditions: 2.5% blood, 5% blood or 5% serum
Source text: Several strategies were used for variant generation of the polynucleotide of SEQ ID NO:1. The resulting libraries were cloned and expressed in S. cerevisiae. Transformed clones were screened on a plate assay containing growth media supplemented with 1.5% galactose and 0.5% glucose and either horse blood (2.5-5%) or serum (5%), overlayed with the target organism, E. coli ATCC 10536 (See Raventos et al., 2005, Comb Chem High Throughput Screen. 8:219-33).
Approximately, 300 Saccharomyces cerevisiae colonies expressing arenicin variants were spread on screening plates containing either horse blood (2.5% or 5%) or 5% horse serum (see composition of the plates below). Plates were incubated 3 hours at 30° C. to allow them to dry. Next, 25 ml overlay temperate at 42° C. was added to the plates. After the media had solidified, the plates were incubated 3 days at 30° C.
On day 4, plates were overlayed with pre-warmed media at 42° C. containing either 2.5% or 5% horse blood or 5% horse serum and the target bacteria, E. coli ATCC 10536 (see below for details on media composition). After the overlay solidified, plates were incubated 16 hours at 37° C. Next day, plates were colored by adding 10 ml of 1.5 mM MTT to the plates and incubated at room temperature for 30 minutes. Clones giving rise to clearing zones were picked and sequenced. […]

| SMILES | fraction unbound ([1]; purified peptide mixed with 90% serum, 30 kDa filter, HPLC, read-out: Protein binding (%) (converted)) | antimicrobial activity in plate assay (clearing zones) (E. coli ATCC 10536) | fraction unbound ([1]; serum) |
| --- | --- | --- | --- |
| CC(C)[C@@H]1NC(=O)CNC(=O)[C@H](CC(N)=O)NC(=O)[C@H](CCCNC(=N)N)NC(=O)[C@H](Cc2ccc(O)cc2)NC(=O)[C@H](C(C)C)NC(=O)[C@@H]2CSSC[C@H](NC(=O)[C@H](C(C)C)NC(=O)[C@H](CCCNC(=N)N)NC1=O)C(=O)N[C@@H](Cc1ccc(O)cc1)C(=O)N[C@@H](CCCNC(=N)N)C(=O)N[C@@H](CCCNC(=N)N)C(=O)N[C@H](C(=O)N[C@@H](CC(N)=O)C(=O)O)CSSC[C@H](NC(=O)[C@H](Cc1ccccc1)NC(=O)CN)C(=O)N[C@@H](Cc1c[nH]c3ccccc13)C(=O)N[C@@H](Cc1ccc(O)cc1)C(=O)N[C@@H](C(C)C)C(=O)N2 [SEQ ID NO: 2, reference compound] (H-GFCWYVCVYRNGVRVCYRRCN-OH; disulfide 3-20, 7-16) | 0.005 | fully inhibited |  |
| CC(C)[C@@H]1NC(=O)CNC(=O)[C@H](CC(N)=O)NC(=O)[C@H](CCCNC(=N)N)NC(=O)[C@H](Cc2ccc(O)cc2)NC(=O)[C@H](Cc2ccc(O)cc2)NC(=O)[C@@H]2CSSC[C@H](NC(=O)[C@H](C(C)C)NC(=O)[C@H](CCCNC(=N)N)NC1=O)C(=O)N[C@@H](Cc1ccc(O)cc1)C(=O)N[C@@H](CCCNC(=N)N)C(=O)N[C@@H](CCCNC(=N)N)C(=O)N[C@H](C(=O)N[C@@H](CC(N)=O)C(=O)O)CSSC[C@H](NC(=O)[C@H](Cc1ccccc1)NC(=O)CN)C(=O)N[C@@H](Cc1c[nH]c3ccccc13)C(=O)N[C@@H](Cc1ccc(O)cc1)C(=O)N[C@@H](C(C)C)C(=O)N2 [compound 25] (H-GFCWYVCYYRNGVRVCYRRCN-OH; disulfide 3-20, 7-16 (inferred); N-terminus and C-terminus assumed) |  |  | 0.02 |
| CC(C)[C@@H]1NC(=O)CNC(=O)[C@H](CC(N)=O)NC(=O)[C@H](CCCNC(=N)N)NC(=O)[C@H](Cc2ccc(O)cc2)NC(=O)[C@H](CO)NC(=O)[C@@H]2CSSC[C@H](NC(=O)[C@H](CCCCN)NC(=O)[C@H](CCCNC(=N)N)NC1=O)C(=O)N[C@@H](Cc1ccc(O)cc1)C(=O)N[C@@H](CCCNC(=N)N)C(=O)N[C@@H](CCCNC(=N)N)C(=O)N[C@H](C(=O)N[C@@H](CC(N)=O)C(=O)O)CSSC[C@H](NC(=O)[C@H](Cc1ccccc1)NC(=O)CN)C(=O)N[C@@H](Cc1c[nH]c3ccccc13)C(=O)N[C@@H](CCCNC(=N)N)C(=O)N[C@@H](C(C)C)C(=O)N2 [compound 331] (H-GFCWRVCSYRNGVRKCYRRCN-OH; disulfide 3-20, 7-16 (inferred); N-terminus and C-terminus assumed) |  |  | 0.05 |
| CC(C)[C@@H]1NC(=O)CNC(=O)[C@H](CC(N)=O)NC(=O)[C@H](CCCNC(=N)N)NC(=O)[C@H](Cc2ccc(O)cc2)NC(=O)[C@H](C(C)C)NC(=O)[C@@H]2CSSC[C@H](NC(=O)[C@H](C(C)C)NC(=O)[C@H](CCCNC(=N)N)NC1=O)C(=O)N[C@@H](Cc1c[nH]cn1)C(=O)N[C@@H](CCCNC(=N)N)C(=O)N[C@@H](Cc1c[nH]cn1)C(=O)N[C@H](C(=O)N[C@@H](CC(N)=O)C(=O)O)CSSC[C@H](NC(=O)[C@H](Cc1ccccc1)NC(=O)[C@@H](N)CCCNC(=N)N)C(=O)N[C@@H](Cc1c[nH]c3ccccc13)C(=O)N[C@@H](CC(N)=O)C(=O)N[C@@H](C(C)C)C(=O)N2 [compound 359] (H-RFCWNVCVYRNGVRVCHRHCN-OH; disulfide 3-20, 7-16 (inferred); N-terminus and C-terminus assumed) |  |  | 0.2 |
| CC(C)[C@@H]1NC(=O)CNC(=O)[C@H](CC(N)=O)NC(=O)[C@H](CCCNC(=N)N)NC(=O)[C@H](Cc2ccc(O)cc2)NC(=O)[C@H](C(C)C)NC(=O)[C@@H]2CSSC[C@H](NC(=O)[C@H](C(C)C)NC(=O)[C@H](CCCNC(=N)N)NC1=O)C(=O)N[C@@H](Cc1c[nH]cn1)C(=O)N[C@@H](CCCNC(=N)N)C(=O)N[C@@H](CCCNC(=N)N)C(=O)N[C@H](C(=O)N[C@@H](Cc1c[nH]c3ccccc13)C(=O)O)CSSC[C@H](NC(=O)[C@H](Cc1ccccc1)NC(=O)CN)C(=O)N[C@@H](Cc1c[nH]c3ccccc13)C(=O)N[C@@H](CC(N)=O)C(=O)N[C@@H](C(C)C)C(=O)N2 [compound 291] (H-GFCWNVCVYRNGVRVCHRRCW-OH; disulfide 3-20, 7-16 (inferred); N-terminus and C-terminus assumed) |  |  | 0.01 |
